assay: Antagonist activity at lasB in Pseudomonas aeruginosa harboring lasB-gfp gene assessed as inhibition of […]-induced quorum sensing by green fluorescence protein reporter assay

| Compound | IC50 [µM] |
| --- | --- |
| O=C(Cn1cc(C2CC2)nn1)N[C@H]1CCOC1=O | 499 |
| O=Cc1cccc(-n2cc(CCC(=O)N[C@H]3CCOC3=O)nn2)c1 | 381 |
| CCCc1cn(CC(=O)N[C@H]2CCOC2=O)nn1 | 678 |
| O=C(Cn1cc(C2CCCCC2)nn1)N[C@H]1CCOC1=O | 889 |
| O=C(Cn1cc(CSc2ccccc2)nn1)N[C@H]1CCOC1=O | 692 |
| O=C(Cn1cc(C2CCCC2)nn1)N[C@H]1CCOC1=O | 610 |
| [N-]=[N+]=Nc1ccc(C(=O)N[C@H]2CCOC2=O)cc1 | 1100 |
| CCCCCCc1cn(CC(=O)N[C@H]2CCOC2=O)nn1 | 425 |
| O=C(Cn1cc(-c2ccsc2)nn1)N[C@H]1CCOC1=O | 582 |

Source: BindingDB's records for doi:10.1016/j.bmc.2015.01.038 (Technical University of Denmark, 2015)
